From patent US11351134B2, “Small molecule agents, compositions, and formulations, for internal use, displaying inhibitory activity against gram-positive and/or gram-negative organisms” (NATUREZA, INC., priority 2017, dated 2022)
Like-named read-outs stand apart in the source and are kept apart here.

Legend:
Miscibility with water = type: physicochemical; details: mixed with water under agitated conditions
Method: (§1) Initially, to determine basic characteristics, each active component was separately mixed, generally under agitated conditions, with water, and each was miscible with water. Each, after being mixed with water, was tested in a broth microdilution assay, against a variety of bacteria using amounts of the each of the lauric acid derivatives, ranging from about 0.0009 wt. % to about 8 wt. %. The bacteria included Escherichia coli, and Staphylococcus aureus (including MRSA strains). The minimum inhibitory concentration (MIC) needed to prevent growth of the target bacteria was evaluated based on a method published by Clinical Laboratory Standards Institute (CLSI), broth microdilution method M-07 (M07). […] Each of the samples containing one of the lauric acid derivatives was compared with a positive control, decanoic acid.

E. coli = assay: Broth microdilution MIC of lecithin/chitosan particle compositions; type: cell-based; details: lecithin/chitosan particle composition; prep. mixture pH 5 or pH 7; maximum concentration tested 10 mg/ml
Method: as §1
(§2) For TABLES 1 to 3, compositions were generally prepared as described above, and as further outlined in this paragraph. For these examples, the active component, as a lauric acid derivative or lauric acid, was suspended in an organic solvent, chloroform, and then mixed with water, under robust agitation. The amount of water to the amount of chloroform was at least about 2:1, and could be as high as 10:1. Chloroform was then evaporated (e.g., under vacuum using a freeze dryer). After removal of the chloroform, a 2.2% lecithin solution in an acetate buffer (e.g., 98 mM acetic acid and 2 mM sodium acetate) was prepared and added, so the final amount of the active component was about 1 part active component mixture and about 9 parts of the 2.2% lecithin solution. Of course, it is noted that other ranges to achieve final amount of the active component as described above (e.g., active component mixture and lecithin solution) may also be utilized. Cholesterol could also be optionally added. The mixture of lecithin and the active component was mixed and sonicated, and then a solution of about 1.5% chitosan was added. Thereafter, the entirety of the mixture containing the lecithin and the active component was further blended, in which a final ratio was about 1 part active component to about 9 parts of the 2.2% lecithin solution to about 10 parts of the 1.5% chitosan solution. The pH was then varied, to a pH of 5, or a pH of 7, or a pH of 9. In some mixtures having a pH of 7, a chemical agent imparting a positive charge to the chitosan was included in a form of glycol chitosan. In these tests, the chemical agent used was glycol. In these examples, the amount of chemical agent, glycol was about one molecule glycol moiety to one molecule chitosan sacharide unit; higher amounts of glycol moieties are also acceptable, while lower amounts of glycol moieties were often found to decrease overall inhibitory activity associated with a composition when formed and tested in vitro. It is noted that negatively charged chitosan containing particles were prepared. […] After mixing, the mixtures could each be filtered through a […] filter. In some tests, the mixtures were sonicated before filtering. Sonication produced small particles. In some studies, particles were freeze dried as a powder (generally, after mixing, sonicating and filtering).
(§3) The positive controls were prepared and evaluated in a similar manner. All prepared samples were tested using a broth microdilution test.

S. epidermidis = assay: as above; type: cell-based; details: Staphylococcus epidermidis, lecithin/chitosan particle composition, prep. mixture pH 5 or pH 7, maximum concentration tested 10 mg/ml
Method: as §1, §2, §3

[1] = test system: representative bacteria tested in vitro, whether Gram-positive or Gram-negative; assay: In vitro growth inhibition of active component suspended in chloroform, mixed with water, chloroform evaporated; type: cell-based; details: pH neutral or acidic, no lecithin or chitosan
Method: In another preparation, each of the lauric acid derivatives of TABLE 4 was independently suspended in an organic solvent, chloroform, and then mixed with water, generally under agitated conditions. This was followed by chloroform evaporation, generally under vacuum, using a freeze dryer. The same preparations were evaluated against the positive control, decanoic acid. Here, for all samples, the amount of water to the amount of chloroform was at least 2:1, and was as high as 10:1. The pH was neutral or was acidic. For each of the lauric acid derivatives as so prepared independently, there was no evidence of any growth inhibitory activity (growth inhibition) against representative bacteria tested in vitro, whether Gram-positive or Gram-negative.

For `CCCCCCCCCC(=O)O` [decanoic acid, reference compound], the Miscibility with water (Miscibility with water) was “not miscible in water”, the “MIC (mg/ml) for E. coli (chitosan prep. mixture was at pH 5 or at pH 7)” value (E. coli) was “— (no inhibitory activity)” and the MIC (S. epidermidis; Table 3, read-out: MIC (mg/ml) S. epidermidis (chitosan prep. mixture at pH 5 or at pH 7)) was 10 mg/mL. For the same compound, the MIC (S. epidermidis; read-out: MIC (mg/ml) for S. epidermidis (chitosan prep. mixture was at pH 5 or at pH 7)) was 10 mg/mL and the “Growth inhibitory activity against representative bacteria” value [1] was “did not demonstrate growth inhibitory activity”.
